Common to all, as to experiment: biochemical
Test [1] has as its target T1, ZmDRIK1-R187-P492 (Zea mays, UniProt C0P4K9).
T1 construct: kinase domain, R187-P492
T1 sequence (C0P4K9 1-514): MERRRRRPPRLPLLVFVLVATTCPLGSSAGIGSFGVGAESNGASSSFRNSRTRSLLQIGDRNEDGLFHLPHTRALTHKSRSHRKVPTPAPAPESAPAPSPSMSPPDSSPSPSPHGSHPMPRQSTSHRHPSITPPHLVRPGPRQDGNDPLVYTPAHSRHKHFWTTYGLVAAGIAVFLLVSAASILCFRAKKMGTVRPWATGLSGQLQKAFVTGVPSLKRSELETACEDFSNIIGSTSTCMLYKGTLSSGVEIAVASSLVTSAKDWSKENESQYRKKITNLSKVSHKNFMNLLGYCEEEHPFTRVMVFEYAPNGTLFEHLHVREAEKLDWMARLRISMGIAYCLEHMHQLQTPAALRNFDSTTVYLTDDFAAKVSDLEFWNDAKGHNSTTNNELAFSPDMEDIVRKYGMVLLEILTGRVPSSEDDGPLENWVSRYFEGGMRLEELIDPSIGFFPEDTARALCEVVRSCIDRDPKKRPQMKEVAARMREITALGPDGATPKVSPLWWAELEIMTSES
Particulars: read-out: dTm B, DSF, Boltzmann fit, 0.1% DMSO.

Test [2] concerns the target T2, ZmDRIK1-K217-S514 (Zea mays, UniProt C0P4K9).
T2 construct: kinase domain, K217-S514
T2 sequence (C0P4K9 1-514): T1 sequence (C0P4K9 1-514)
Particulars: read-out: dTm B, sheet ZmDRIK1-K217-S514;; DSF, Boltzmann fit, 0.1% DMSO.

Test [3] concerns the target T3, ZmDRIK1 (DROUGHT RESPONSIVE INACTIVE KINASE 1), kinase domain (Zea mays, UniProt C0P4K9).
T3 construct: gene ZEAMMB73_Zm00001d028770; ZmDRIK1-KD R187-S514 (kinase domain)
T3 sequence (C0P4K9 187-514): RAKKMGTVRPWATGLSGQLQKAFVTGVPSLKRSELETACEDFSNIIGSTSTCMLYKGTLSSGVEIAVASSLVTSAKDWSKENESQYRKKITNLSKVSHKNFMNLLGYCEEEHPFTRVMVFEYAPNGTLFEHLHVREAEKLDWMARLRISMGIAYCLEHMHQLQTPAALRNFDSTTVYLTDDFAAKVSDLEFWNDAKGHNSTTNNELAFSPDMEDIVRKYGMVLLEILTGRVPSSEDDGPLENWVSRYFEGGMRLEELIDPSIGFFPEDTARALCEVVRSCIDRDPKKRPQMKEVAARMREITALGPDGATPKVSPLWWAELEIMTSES
Particulars: read-out: dTm B, sheet ZmDRIK1-R187-S514;; DSF, Boltzmann fit, 0.1% DMSO.

Test [4] has as its target T4, ZmDRIK1-K217-P492 (Zea mays, UniProt C0P4K9).
T4 construct: kinase domain, K217-P492
T4 sequence (C0P4K9 1-514): T1 sequence (C0P4K9 1-514)
The settings on record: read-out: dTm B, sheet ZmDRIK1-K217-P492;; DSF, Boltzmann fit, 0.1% DMSO.

Here are results for 16 molecules from PMC7158045 (BMC Plant Biology, 2020).

Structures can show the parent of a compound that is named as a salt.

With `Cc1ccc(C(=O)Nc2ccc(CN3CCN(C)CC3)c(C(F)(F)F)c2)cc1C#Cc1cnc2[nH]ncc2c1` [GZD824], the ΔTm at 10 µM in test [1] is -0.305 °C; in test [2], 0.363 °C; in test [3], -1.61 °C; in test [4] it was -4.57 °C.

For `Cn1cc(-c2ccc3ncc(Cc4ccc5ncccc5c4)n3n2)cn1` [NVP-BVU972], the ΔTm at 10 µM in test [1] is -0.283 °C; in test [2], -0.37 °C; in test [3] it was -0.84 °C; in test [4] it was -0.593 °C.

Turning to `O=C1Nc2ccc(I)cc2/C1=C/c1cc(Br)c(O)c(Br)c1` [GW5074], the ΔTm at 10 µM in test [1] was -0.306 °C; in test [2] it was 0.341 °C; in test [3] it was -0.178 °C; in test [4] it was -0.0461 °C.

Consider `CNC(=O)c1cc(COc2nnc(Nc3ccc(Cl)cc3)c3ccoc23)ccn1` [Telatinib], for which the ΔTm at 10 µM was -0.226 °C in test [1], -0.252 °C in test [2], -0.862 °C in test [3] and -0.739 °C in test [4].

Take `NC(=O)c1cccc(-c2cc(Nc3ccc(OC(F)(F)F)cc3)ncn2)c1` [GNF-2]: the ΔTm at 10 µM in test [1] is -7.74 °C; in test [2], -4.34 °C; in test [3] it was -0.138 °C; in test [4], -9.47 °C.

Consider `CN(C)Cc1cccc(N/C(=C2\C(=O)Nc3cc(C(N)=O)ccc32)c2ccccc2)c1` [BIX 02188], for which the ΔTm at 10 µM in test [1] was -0.00337 °C; in test [2], -0.0855 °C; in test [3], -0.816 °C; in test [4] it was -0.147 °C.

For the molecule `CCN1/C(=C/C(C)=O)Sc2ccc(OC)cc21` [TG003], the ΔTm at 10 µM is -0.291 °C in test [1], -0.33 °C in test [2], -0.488 °C in test [3] and -1.11 °C in test [4].

For `CCn1c2ccccc2c2cc(Nc3ccnc(NCCCN4CCOCC4)n3)ccc21` [EHop-016], the ΔTm at 10 µM in test [1] was -0.204 °C; in test [2], -0.29 °C; in test [3], -0.693 °C; in test [4] it was -1.16 °C.

Turning to `C#Cc1cccc(Nc2ncnc3cc4c(cc23)OCCOCCOCCO4)c1` [Icotinib], the ΔTm at 10 µM in test [1] was -0.388 °C; in test [2], -0.34 °C; in test [3], -0.618 °C; in test [4], -1.1 °C.

With `NC1(Cc2ccc(Cl)cc2)CCN(c2ncnc3[nH]ccc23)CC1` [CCT128930], the ΔTm at 10 µM in test [1] is -0.325 °C; in test [2], -0.48 °C; in test [3], -0.523 °C; in test [4], -1.15 °C.

`COC(=O)c1ccc2c(c1)NC(=O)/C2=C(\Nc1ccc(N(C)C(=O)CN2CCN(C)CC2)cc1)c1ccccc1` [Nintedanib (BIBF 1120)]: the ΔTm at 10 µM in test [1] is -0.154 °C; in test [2], -0.223 °C; in test [3], -0.677 °C; in test [4], -1.32 °C.

Turning to `CNC(=O)c1cccc(-c2ccc3c(N4CCOC[C@@H]4C)nc(N4CCOC[C@@H]4C)nc3n2)c1` [AZD2014], the ΔTm at 10 µM in test [1] was -0.208 °C; in test [2] it was -0.171 °C; in test [3] it was -0.732 °C; in test [4], -0.984 °C.

For `Cc1cc(O)c2c(c1)C(=O)c1cccc(O)c1C2=O` [Chrysophanic Acid], the ΔTm at 10 µM in test [1] was -0.205 °C; in test [2] it was -0.229 °C; in test [3], -0.414 °C; in test [4], -1.17 °C.

Take `C#Cc1cccc(Nc2ncnc3cc(OCCOC)c(OCCO)cc23)c1` [OSI-420]: the ΔTm at 10 µM is -0.201 °C in test [1], -0.412 °C in test [2], -1.2 °C in test [3] and -0.652 °C in test [4].

Regarding `CC(=O)c1c(C)c2cnc(Nc3ccc(N4CCNCC4)cn3)nc2n(C2CCCC2)c1=O` [Palbociclib (PD-0332991) HCl], the ΔTm at 10 µM was -0.154 °C in test [1], -0.31 °C in test [2], -0.906 °C in test [3] and -0.775 °C in test [4].

`O=C(NCCCNc1nc(Nc2cccc(NC(=O)N3CCCC3)c2)ncc1I)c1cccs1` [BX-795]: the ΔTm at 10 µM in test [1] was -1.23 °C; in test [2], -1.39 °C; in test [3] it was -0.711 °C; in test [4], -1.46 °C.
